The structures appear in SMILES notation.

In assay [1] the target is Ephrin type-A receptor 7 (Homo sapiens) (UniProt Q15375). The assay can be described thus: Induction of stabilization of recombinant EPHA7 (unknown origin) assessed as change in melting temperature by differential scanning fluorimetry assay.
Assay [2] addresses T1, Ephrin type-B receptor 3 (Homo sapiens) (UniProt P54753).
T1 sequence (whole entry): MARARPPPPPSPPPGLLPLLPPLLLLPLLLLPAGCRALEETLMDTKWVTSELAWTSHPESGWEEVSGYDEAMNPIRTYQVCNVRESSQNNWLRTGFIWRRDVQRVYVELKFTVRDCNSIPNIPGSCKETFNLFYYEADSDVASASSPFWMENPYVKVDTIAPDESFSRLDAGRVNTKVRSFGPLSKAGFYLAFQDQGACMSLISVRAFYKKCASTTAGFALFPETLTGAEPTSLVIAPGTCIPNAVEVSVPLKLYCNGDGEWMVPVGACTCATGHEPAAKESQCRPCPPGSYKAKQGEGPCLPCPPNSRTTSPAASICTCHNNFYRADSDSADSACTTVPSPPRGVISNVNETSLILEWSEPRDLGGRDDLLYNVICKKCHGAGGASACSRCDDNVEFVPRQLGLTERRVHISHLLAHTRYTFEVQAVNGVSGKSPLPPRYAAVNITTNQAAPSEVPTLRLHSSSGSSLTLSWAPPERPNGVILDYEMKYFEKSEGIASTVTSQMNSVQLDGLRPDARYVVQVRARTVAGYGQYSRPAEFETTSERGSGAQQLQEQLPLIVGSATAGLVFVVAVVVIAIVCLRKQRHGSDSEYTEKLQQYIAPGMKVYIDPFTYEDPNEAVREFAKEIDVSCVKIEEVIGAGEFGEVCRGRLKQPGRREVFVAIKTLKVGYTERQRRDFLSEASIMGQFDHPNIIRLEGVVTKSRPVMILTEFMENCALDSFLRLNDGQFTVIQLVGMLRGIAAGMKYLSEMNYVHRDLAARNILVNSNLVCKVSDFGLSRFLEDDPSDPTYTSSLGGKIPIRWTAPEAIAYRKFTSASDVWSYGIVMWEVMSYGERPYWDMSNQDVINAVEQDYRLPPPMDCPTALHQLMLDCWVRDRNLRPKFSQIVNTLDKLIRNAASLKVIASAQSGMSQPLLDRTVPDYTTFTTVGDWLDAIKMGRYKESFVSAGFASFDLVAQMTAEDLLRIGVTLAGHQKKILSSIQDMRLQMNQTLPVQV
As to the kind of experiment: Induction of stabilization of recombinant EPHB3 (unknown origin) assessed as change in melting temperature by differential scanning fluorimetry assay. In general terms: Differential scanning fluorimetry follows unfolding on heating by fluorescence.

Assay [3] addresses T2, Cyclin-G-associated kinase (Homo sapiens) (UniProt O14976).
T2 sequence (whole entry): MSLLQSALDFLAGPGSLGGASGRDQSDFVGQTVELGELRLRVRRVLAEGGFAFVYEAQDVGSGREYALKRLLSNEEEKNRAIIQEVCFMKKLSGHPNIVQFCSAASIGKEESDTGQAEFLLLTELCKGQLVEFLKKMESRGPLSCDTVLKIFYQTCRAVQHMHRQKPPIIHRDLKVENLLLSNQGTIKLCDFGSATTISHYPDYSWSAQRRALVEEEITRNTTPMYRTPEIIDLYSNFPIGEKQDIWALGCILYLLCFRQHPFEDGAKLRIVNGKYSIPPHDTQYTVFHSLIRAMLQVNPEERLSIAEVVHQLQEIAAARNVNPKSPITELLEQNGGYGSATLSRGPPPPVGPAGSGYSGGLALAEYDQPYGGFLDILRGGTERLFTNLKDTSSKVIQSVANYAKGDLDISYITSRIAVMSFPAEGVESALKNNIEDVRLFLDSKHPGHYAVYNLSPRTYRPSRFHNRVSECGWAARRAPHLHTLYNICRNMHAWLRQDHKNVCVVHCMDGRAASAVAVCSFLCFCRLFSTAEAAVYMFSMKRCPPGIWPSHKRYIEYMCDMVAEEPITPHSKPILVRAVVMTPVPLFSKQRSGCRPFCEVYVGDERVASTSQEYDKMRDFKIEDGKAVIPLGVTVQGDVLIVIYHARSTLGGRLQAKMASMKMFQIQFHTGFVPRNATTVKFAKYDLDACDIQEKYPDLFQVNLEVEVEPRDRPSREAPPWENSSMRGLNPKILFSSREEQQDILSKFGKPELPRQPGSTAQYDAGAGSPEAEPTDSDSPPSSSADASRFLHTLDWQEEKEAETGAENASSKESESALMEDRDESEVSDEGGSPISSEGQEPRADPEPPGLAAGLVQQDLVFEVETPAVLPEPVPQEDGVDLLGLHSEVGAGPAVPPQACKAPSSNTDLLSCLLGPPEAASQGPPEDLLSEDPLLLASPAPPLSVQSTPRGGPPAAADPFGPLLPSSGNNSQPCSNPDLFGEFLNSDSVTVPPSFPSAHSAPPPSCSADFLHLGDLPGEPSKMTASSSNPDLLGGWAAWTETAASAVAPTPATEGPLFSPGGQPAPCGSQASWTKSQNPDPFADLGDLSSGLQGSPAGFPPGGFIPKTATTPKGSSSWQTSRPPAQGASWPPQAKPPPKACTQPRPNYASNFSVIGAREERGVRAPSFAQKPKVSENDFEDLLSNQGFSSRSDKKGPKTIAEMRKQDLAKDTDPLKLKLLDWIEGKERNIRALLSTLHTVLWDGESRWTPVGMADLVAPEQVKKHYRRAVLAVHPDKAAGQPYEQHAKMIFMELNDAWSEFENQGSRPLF
Description: Induction of stabilization of recombinant GAK (unknown origin) assessed as change in melting temperature by differential scanning fluorimetry assay

In assay [4] the target is Fibroblast growth factor receptor 2 (Homo sapiens) (UniProt P21802).
Sequence of Fibroblast growth factor receptor 2 (Homo sapiens) (P21802 22-821 limits assumed): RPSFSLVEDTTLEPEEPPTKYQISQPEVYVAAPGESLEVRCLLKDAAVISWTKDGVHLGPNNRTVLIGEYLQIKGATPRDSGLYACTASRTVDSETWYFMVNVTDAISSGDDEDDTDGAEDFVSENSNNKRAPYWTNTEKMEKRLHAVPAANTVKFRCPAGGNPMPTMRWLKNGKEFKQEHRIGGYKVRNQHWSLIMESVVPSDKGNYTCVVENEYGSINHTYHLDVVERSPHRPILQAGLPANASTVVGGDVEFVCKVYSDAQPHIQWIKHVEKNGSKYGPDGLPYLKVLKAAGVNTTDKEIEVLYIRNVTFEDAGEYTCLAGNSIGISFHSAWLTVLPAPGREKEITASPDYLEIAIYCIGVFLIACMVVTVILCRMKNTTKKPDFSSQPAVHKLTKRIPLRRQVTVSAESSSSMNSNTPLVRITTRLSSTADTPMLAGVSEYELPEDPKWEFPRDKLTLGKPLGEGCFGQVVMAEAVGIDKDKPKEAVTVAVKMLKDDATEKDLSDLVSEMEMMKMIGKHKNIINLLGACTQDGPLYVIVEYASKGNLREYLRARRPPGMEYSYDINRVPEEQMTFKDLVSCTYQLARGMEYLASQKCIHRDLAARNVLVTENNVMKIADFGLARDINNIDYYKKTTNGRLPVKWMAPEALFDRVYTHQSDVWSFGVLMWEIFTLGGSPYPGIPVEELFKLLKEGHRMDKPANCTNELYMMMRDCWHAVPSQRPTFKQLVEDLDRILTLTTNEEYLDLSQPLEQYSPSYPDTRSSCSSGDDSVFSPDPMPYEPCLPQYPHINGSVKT
Description: Induction of stabilization of recombinant FGFR2 (unknown origin) assessed as change in melting temperature by differential scanning fluorimetry assay
The target in the next assay is Ephrin type-A receptor 2 (Homo sapiens, UniProt P29317).
Sequence of Ephrin type-A receptor 2 (P29317 whole entry): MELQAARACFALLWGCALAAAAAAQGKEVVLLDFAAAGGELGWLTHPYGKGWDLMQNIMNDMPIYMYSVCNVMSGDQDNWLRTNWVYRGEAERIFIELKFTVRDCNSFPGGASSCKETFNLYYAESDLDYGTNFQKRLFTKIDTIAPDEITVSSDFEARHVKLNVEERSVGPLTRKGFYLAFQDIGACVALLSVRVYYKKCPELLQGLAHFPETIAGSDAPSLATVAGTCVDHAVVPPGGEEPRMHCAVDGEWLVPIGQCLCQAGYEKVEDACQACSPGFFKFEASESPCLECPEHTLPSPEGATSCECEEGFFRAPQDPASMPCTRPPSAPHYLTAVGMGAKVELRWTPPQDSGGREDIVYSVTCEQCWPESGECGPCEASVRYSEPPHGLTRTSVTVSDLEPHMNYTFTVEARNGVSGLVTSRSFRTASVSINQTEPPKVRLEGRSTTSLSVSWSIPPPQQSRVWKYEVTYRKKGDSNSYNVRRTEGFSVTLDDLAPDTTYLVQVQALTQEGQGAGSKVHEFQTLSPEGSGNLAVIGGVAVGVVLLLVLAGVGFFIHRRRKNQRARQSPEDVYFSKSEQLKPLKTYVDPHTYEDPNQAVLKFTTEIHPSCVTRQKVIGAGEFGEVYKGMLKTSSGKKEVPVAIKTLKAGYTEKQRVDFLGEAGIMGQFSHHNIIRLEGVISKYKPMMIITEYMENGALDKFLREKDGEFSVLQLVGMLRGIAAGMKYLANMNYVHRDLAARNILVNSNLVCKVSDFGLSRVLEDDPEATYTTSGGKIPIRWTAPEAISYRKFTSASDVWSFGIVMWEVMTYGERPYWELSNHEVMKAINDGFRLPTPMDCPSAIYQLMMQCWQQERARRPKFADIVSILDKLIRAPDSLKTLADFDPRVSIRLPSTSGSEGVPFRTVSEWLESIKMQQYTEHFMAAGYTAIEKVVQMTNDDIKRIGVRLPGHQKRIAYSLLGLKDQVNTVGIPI
The next assay deals with Ephrin type-A receptor 4 (Homo sapiens, UniProt P54764). As to the kind of experiment: Induction of stabilization of recombinant EPHA4 (unknown origin) assessed as change in melting temperature by differential scanning fluorimetry assay.
Assay [5] deals with Ephrin type-A receptor 5 (Homo sapiens) (UniProt P54756).
Sequence of Ephrin type-A receptor 5 (Homo sapiens) (P54756 whole entry): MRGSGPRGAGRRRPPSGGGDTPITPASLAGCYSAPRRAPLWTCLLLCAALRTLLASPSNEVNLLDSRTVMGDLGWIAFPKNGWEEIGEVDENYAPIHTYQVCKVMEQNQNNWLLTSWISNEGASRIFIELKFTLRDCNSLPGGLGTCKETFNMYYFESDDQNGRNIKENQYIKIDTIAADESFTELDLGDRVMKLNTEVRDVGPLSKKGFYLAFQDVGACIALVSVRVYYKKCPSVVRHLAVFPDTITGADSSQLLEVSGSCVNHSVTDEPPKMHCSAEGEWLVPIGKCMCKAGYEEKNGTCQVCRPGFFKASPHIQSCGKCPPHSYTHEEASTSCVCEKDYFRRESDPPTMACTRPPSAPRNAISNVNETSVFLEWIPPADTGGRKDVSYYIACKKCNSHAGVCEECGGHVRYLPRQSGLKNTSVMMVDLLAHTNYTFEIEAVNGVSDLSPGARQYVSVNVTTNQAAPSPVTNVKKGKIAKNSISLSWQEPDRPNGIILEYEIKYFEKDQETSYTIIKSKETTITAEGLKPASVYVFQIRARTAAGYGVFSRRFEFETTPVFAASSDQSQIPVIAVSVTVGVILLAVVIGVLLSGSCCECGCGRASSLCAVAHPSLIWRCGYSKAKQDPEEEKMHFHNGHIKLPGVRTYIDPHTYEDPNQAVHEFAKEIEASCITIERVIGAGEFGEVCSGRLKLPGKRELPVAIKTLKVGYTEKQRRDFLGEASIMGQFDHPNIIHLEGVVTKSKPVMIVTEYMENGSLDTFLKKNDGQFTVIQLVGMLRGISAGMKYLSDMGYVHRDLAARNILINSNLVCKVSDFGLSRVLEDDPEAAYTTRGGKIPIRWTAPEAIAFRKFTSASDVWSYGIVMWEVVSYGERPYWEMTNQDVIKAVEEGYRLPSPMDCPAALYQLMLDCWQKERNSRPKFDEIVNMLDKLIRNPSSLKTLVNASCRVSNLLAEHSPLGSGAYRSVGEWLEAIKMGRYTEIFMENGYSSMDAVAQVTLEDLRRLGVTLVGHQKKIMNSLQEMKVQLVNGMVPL
Description: Induction of stabilization of recombinant EPHA5 (unknown origin) assessed as change in melting temperature by differential scanning fluorimetry assay
Assay [6] concerns the target T3, Ephrin type-B receptor 1 (Homo sapiens) (UniProt P54762).
T3 sequence (whole entry): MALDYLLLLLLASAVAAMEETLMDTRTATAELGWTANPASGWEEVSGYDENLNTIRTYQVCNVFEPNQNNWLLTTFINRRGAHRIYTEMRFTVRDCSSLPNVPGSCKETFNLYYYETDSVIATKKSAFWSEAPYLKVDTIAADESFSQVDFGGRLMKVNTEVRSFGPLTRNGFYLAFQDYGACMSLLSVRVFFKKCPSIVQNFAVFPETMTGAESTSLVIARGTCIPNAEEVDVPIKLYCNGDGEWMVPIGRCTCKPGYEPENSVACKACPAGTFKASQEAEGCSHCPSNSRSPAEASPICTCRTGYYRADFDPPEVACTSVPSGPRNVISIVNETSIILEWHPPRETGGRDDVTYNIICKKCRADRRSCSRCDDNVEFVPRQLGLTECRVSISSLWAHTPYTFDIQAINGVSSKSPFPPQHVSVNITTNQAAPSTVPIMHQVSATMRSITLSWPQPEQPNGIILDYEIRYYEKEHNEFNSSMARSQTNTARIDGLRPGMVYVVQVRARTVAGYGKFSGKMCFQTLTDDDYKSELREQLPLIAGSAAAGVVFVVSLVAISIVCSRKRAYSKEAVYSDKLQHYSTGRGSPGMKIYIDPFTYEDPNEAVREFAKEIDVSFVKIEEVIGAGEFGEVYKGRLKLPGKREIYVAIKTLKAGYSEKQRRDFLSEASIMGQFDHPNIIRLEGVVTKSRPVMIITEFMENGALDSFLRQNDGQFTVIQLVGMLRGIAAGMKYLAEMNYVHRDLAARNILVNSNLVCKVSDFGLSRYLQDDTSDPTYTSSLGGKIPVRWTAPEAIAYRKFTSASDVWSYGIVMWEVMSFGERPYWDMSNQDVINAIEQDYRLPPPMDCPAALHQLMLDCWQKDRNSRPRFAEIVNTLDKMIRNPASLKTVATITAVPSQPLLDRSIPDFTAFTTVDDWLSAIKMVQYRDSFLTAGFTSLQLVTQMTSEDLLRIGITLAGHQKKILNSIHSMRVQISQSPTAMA
As to the kind of experiment: Induction of stabilization of recombinant EPHB1 (unknown origin) assessed as change in melting temperature by differential scanning fluorimetry assay.

Assay [7] has as its target Vascular endothelial growth factor receptor 1 (Homo sapiens, UniProt P17948). As to the kind of experiment: Induction of stabilization of recombinant FLT1 (unknown origin) assessed as change in melting temperature by differential scanning fluorimetry assay.
Assay [8] deals with Fibroblast growth factor receptor 1 (Homo sapiens, UniProt P11362).
Description: Induction of stabilization of recombinant FGFR1 (unknown origin) assessed as change in melting temperature by differential scanning fluorimetry assay

Sequence of Vascular endothelial growth factor receptor 1 (P17948 whole entry): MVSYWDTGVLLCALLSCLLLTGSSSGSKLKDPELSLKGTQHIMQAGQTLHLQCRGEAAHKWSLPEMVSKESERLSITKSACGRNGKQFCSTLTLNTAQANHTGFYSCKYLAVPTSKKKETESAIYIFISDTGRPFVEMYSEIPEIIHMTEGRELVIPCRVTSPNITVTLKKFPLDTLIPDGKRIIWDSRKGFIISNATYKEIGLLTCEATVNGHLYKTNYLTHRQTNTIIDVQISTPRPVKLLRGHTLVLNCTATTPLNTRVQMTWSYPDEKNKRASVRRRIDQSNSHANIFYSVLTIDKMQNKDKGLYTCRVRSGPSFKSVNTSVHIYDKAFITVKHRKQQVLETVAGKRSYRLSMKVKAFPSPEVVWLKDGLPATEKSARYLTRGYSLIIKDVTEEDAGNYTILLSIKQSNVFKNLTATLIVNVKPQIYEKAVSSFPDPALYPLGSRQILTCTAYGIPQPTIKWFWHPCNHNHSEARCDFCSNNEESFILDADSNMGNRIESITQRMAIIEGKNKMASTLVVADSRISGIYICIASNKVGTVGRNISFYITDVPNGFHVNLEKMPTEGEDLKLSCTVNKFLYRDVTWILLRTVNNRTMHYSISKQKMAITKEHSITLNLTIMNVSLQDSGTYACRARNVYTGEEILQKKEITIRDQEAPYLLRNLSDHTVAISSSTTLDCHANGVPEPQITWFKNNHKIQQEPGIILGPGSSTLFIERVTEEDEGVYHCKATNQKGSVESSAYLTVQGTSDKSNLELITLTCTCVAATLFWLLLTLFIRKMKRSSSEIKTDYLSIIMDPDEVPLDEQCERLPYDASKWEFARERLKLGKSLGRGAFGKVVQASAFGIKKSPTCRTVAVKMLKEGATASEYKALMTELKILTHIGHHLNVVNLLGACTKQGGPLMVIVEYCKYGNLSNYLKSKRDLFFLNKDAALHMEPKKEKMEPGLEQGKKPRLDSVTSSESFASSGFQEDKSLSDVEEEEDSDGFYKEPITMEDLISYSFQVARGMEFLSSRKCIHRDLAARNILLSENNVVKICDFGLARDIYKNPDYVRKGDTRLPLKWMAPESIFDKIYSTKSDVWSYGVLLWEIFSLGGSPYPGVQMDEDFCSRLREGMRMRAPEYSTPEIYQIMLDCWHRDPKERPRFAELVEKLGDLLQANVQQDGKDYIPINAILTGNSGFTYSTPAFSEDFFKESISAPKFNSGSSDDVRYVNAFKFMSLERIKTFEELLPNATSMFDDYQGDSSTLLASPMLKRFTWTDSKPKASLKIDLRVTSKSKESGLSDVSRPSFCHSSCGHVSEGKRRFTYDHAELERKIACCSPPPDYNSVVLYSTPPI
Sequence of Ephrin type-A receptor 7 (Homo sapiens) (Q15375 28-998 limits assumed): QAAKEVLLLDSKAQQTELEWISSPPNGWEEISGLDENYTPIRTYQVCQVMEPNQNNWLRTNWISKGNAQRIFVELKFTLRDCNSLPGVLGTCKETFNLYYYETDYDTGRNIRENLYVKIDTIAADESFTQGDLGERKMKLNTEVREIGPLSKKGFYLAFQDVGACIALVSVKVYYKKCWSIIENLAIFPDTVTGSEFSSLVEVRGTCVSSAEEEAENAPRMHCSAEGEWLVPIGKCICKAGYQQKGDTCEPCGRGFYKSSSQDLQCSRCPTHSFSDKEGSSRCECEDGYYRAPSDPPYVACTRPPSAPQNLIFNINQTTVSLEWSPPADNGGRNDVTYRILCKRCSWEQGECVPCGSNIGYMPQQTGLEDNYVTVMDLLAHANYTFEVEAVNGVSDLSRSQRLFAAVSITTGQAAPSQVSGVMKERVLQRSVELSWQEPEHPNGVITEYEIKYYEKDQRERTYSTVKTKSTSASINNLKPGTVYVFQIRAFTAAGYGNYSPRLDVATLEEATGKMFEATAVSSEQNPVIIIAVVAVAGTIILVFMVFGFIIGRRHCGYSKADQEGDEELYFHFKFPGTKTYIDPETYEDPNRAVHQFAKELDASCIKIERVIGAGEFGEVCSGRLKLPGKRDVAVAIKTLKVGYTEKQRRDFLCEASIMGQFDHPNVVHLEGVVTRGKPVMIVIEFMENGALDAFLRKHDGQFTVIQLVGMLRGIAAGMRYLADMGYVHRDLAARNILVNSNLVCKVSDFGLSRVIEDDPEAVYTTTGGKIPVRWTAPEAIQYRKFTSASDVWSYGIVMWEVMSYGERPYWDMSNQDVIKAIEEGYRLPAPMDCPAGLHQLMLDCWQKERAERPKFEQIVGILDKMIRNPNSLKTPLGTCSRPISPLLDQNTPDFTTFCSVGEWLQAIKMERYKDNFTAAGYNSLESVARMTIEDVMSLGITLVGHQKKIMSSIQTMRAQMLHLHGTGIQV
Description for Ephrin type-A receptor 2: Induction of stabilization of recombinant EPHA2 (D596 to G900 residues) (unknown origin) expressed in Escherichia coli rosetta BL21(D3)-R3-pRARE2 competent cells assessed as change in melting temperature by differential scanning fluorimetry assay

Consider `COc1cc(-c2cnc3nc2NCCCNS(=O)(=O)c2cc(ccc2-c2ccc(O)cc2)N3)ccc1F`, for which the deltaTm was determined as 2.9 K in assay [1]; 6 K in assay [2]; 3.6 K in assay [3]; 4 K in [4]; 9.8 K on Ephrin type-A receptor 2; 5.3 K at Ephrin type-A receptor 4. The deltaTm worked out at 6.7 K in assay [5], 4.3 K in assay [6], 3.6 K in assay [7] and 3.1 K in assay [8].

Turning to `O=S1(=O)NCCCNc2nc(ncc2-c2ccc(F)c(Cl)c2)Nc2cccc1c2`, the deltaTm was -1.5 K in [1]; 4.3 K in assay [2]; 6.3 K in assay [3]; 5.5 K in assay [4]; 9.2 K on Ephrin type-A receptor 2; 4.6 K on Ephrin type-A receptor 4. For the same compound, the deltaTm in [5] stood at 5.7 K; in assay [6] it was 5.3 K; in assay [7], 7.5 K; in assay [8], 3.8 K.

For the compound `COc1ccc(-c2cnc3nc2NCCCNS(=O)(=O)c2cccc(c2)N3)cc1OC`, the deltaTm in [1] turned out to be 0.8 K; in assay [2], 1.4 K; in assay [3] it was 6.1 K; in assay [4], 3.3 K; at Ephrin type-A receptor 2, 4.6 K; at Ephrin type-A receptor 4, 1.4 K. The deltaTm in [5] worked out at 2.1 K; in [6], 0.6 K; in assay [7] it was 4.1 K; in [8], 2.3 K.

As to `O=S1(=O)NCCCNc2nc(ncc2-c2ccc(F)c(O)c2)Nc2cccc1c2`, the deltaTm was -2 K in assay [1]; 3 K in [2]; 6.4 K in assay [3]; 6.5 K in assay [4]; 7.8 K at Ephrin type-A receptor 2; 2.9 K at Ephrin type-A receptor 4. In addition, the deltaTm in assay [5] was 4.1 K; in assay [6], 4 K; in [7], 10.7 K; in assay [8], 4.9 K.

Take `COc1cc(-c2cnc3nc2NCCCNS(=O)(=O)c2cc(ccc2OCCN2CCOCC2)N3)ccc1F`: the deltaTm in [1] is 1 K; in assay [2], 4.8 K; in assay [3] it was 9 K; in [4], 3.2 K; on Ephrin type-A receptor 2, 6.9 K; on Ephrin type-A receptor 4, 3.7 K. The deltaTm in [5] came to 4.6 K; in assay [6], 4.2 K; in assay [7], 3 K; in [8] it was 2.1 K.

Turning to `COc1cc(-c2cnc3nc2NCCCNS(=O)(=O)c2cccc(c2)N3)ccc1C#N`, the deltaTm in assay [1] is 0 K; in [2], 3.1 K; in assay [3] it was 8.9 K; in assay [4], 1.7 K; at Ephrin type-A receptor 2 it was 8.6 K; on Ephrin type-A receptor 4 it was 5.2 K. In addition, the deltaTm in assay [5] came to 6.2 K; in assay [6], 5.2 K; in assay [7], 1.1 K; in assay [8], 0 K.

For the compound `Nc1cc(-c2cnc3nc2NCCCNS(=O)(=O)c2cccc(c2)N3)ccc1F`, the deltaTm in assay [1] is 0.2 K; in [2], 1.7 K; in assay [3], 6 K; in assay [4], 4.6 K; on Ephrin type-A receptor 2 it was 7.7 K; on Ephrin type-A receptor 4, 4.4 K. Further, the deltaTm turned out to be 4.6 K in assay [5], 3.6 K in assay [6], 4.9 K in assay [7] and 2.2 K in assay [8].

Turning to `COc1cc(-c2cnc3nc2NCCCNS(=O)(=O)c2cccc(c2)N3)ccc1Cl`, the deltaTm in [1] was found to be 2.1 K; in [2], 4.7 K; in assay [3], 7.1 K; in assay [4], 3.8 K; at Ephrin type-A receptor 2, 7.7 K; on Ephrin type-A receptor 4 it was 4.1 K. In addition, the deltaTm in assay [5] amounted to 4.9 K; in assay [6], 0.9 K; in assay [7], 5.2 K; in assay [8], 3.3 K.

For `O=S1(=O)NCCCNc2nc(ncc2Br)Nc2cccc1c2`, the deltaTm amounted to 4.9 K in assay [3] and 6.7 K on Ephrin type-A receptor 2.

Turning to `CN[C@@H]1C[C@H]2O[C@@](C)([C@@H]1OC)n1c3ccccc3c3c4c(c5c6ccccc6n2c5c31)C(=O)NC4`, the deltaTm in [2] was determined as 6.1 K; on Ephrin type-A receptor 2, 6.4 K; at Ephrin type-A receptor 4, 6.2 K; in [6], 6.4 K; in assay [7], 10.2 K.

These data come from ChEMBL document CHEMBL5550200, “Back-Pocket Optimization of 2-Aminopyrimidine-Based Macrocycles Leads to Potent EPHA2/GAK Kinase Inhibitors” (J Med Chem, 2024).
